These results are taken from US20060287360A1, “Novel compounds” (REPLIDYNE, INC., priority 2003, published 2006).

One test concerns the target T1, S. aureus MRS (Staphylococcus aureus, UniProt Q5HII6).
T1 construct: made in house
Kind of test: Enzyme inhibition (S. aureus MRS), aminoacylation assay. It is filed as biochemical. On the procedure: 1. Enzyme Inhibition (S. aureus MRS)—Aminoacylation Assay
Compounds of the present invention may be assayed for their ability to inhibit the enzyme methionyl tRNA synthetase (MRS), using recombinant S. aureus MRS, as follows:
The reaction is started by adding 20 μl appropriately diluted pure enzyme (pre-incubated with inhibitor) to 25 μl reaction mix for 10 min at room temperature. The reaction is terminated by the addition of 100 μl 5% trichloroacetic acid, 10% glycerol. The TCA precipitate is harvested onto dry Unifilter GFC plates using a Packard Filtermate Cell Harvester. The filters are washed with 4×200 μl of 50% industrial methylated spirit, before drying. 30 μl of Microscint 20 is added to each well and plates are counted on a TopCount. (Packard 96 well counter).
Mixed E. coli MRE 600 tRNA and ATP were purchased from Boehringer-Mannheim, L-[^35 S] methionine from Amersham and other reagents from Sigma.
Pure recombinant S. aureus MRS (EP application number 97300317.1, SmithKline Beecham) was obtained using standard purification procedures. The enzyme is diluted in Dilution Buffer which consists of 10 mM Tris/Cl, 2 mM DTT pH 7.9.

The next test has as its system E. faecalis. Briefly: Antibacterial activity, standard MIC assay modified by inclusion of cyclodextrin. The format is cell-based. To be noted: Enterococcus faecalis; some strains of E. faecalis. On the procedure:
(§1) Compounds of the present invention were assayed for antibacterial activity against a range of pathogenic organisms (strains of S aureus, Spneumoniae, Efaecalis, H influenzae and M catarrhalis) in a standard MIC assay modified by the inclusion of cyclodextrin, to assist with solubility.

For another test, the system named is M Catarrhalis. The test is described as above. The format is cell-based. The note with it: some strains of M Catarrhalis. As to the method: as §1
In another test the test system is S. pneumoniae. Described as above. The format is cell-based. The note with it: Streptococcus pneumoniae; some strains of S. pneumoniae. As to the method:
as §1

A further test deals with S. aureus. The description is as above. The format is cell-based. The note with it: Staphylococcus aureus; some strains of S. aureus. As to the method:
as §1

A further test concerns H. influenzae. The description is as above. It is filed as cell-based. On the procedure: as §1

T1 sequence (Q5HII6 whole entry): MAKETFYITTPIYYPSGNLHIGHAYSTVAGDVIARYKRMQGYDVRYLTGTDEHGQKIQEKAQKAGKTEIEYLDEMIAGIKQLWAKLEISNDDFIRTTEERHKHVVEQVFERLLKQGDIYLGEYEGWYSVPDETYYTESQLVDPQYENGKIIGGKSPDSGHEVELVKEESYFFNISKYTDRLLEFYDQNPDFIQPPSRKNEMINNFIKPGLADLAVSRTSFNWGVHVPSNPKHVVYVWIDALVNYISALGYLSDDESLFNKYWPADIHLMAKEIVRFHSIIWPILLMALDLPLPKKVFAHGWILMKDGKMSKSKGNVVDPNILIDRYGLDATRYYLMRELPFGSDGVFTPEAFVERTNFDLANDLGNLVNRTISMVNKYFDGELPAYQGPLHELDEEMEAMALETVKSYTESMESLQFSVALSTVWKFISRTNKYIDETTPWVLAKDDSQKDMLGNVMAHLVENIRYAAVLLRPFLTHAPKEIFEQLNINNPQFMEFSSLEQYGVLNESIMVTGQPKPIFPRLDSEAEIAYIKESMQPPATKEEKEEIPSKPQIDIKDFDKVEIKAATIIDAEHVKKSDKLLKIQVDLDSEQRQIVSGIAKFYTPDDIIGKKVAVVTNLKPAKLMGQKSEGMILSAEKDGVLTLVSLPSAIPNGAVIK

In turn, `COc1cc(CNCCCNc2nn3nccc3[nH]2)c2[nH]cc(Cl)c2c1.Cl.Cl` [Example 1, 2-[3-(3-Chloro-5-methoxy-1H-indol-7-ylmethylamino)propylamino]-1H-pyrazolo[1,5-b][1,2,4]triazole dihydrochloride] gave an IC50 against S. aureus MRS of less than 10 nM. For the same molecule, the MIC with E. faecalis, with M Catarrhalis, against S. pneumoniae and in the test with S. aureus was less than 32 µg/mL in each case.

In the case of `Cc1c(CNCCCNc2nn3nccc3[nH]2)sc(Br)c1Br.Cl.Cl` [Example 2, 2-[3-(4,5-Dibromo-3-methylthien-2-ylmethylamino)propylamino]-1H-pyrazolo[1,5-b][1,2,4]triazole dihydrochloride], the half-maximal inhibitory concentration (IC50) against S. aureus MRS is less than 10 nM. In addition, the “antibacterial activity against H. influenzae” value with H. influenzae is reported as “active”.

Usually IC50 stands for the point on the concentration scale where inhibition reaches its midpoint. Lower therefore signals greater potency in that assay. A word on the MIC: it is the lowest concentration found to suppress growth. Lower therefore signals inhibition by little substance.
